From PubChem BioAssay AID1259407 (Chemical Carcinogenesis Research Information System (CCRIS), 2018) come the findings set out here.

Calls of active or inactive are those of the source. How the calls were made is not given here.

For the series, the system named is CCRIS mutagenicity, Ames/micronucleus/aberration tests. The experiment in a line: CCRIS mutagenicity studies.
The mark [1] stands for this setting: Test System: AMES SALMONELLA TYPHIMURIUM, Strain/Indicator: TA98, Metabolic Activation: NONE, Method: STANDARD PLATE.
Setting [2] is: Test System: AMES SALMONELLA TYPHIMURIUM, Strain/Indicator: TA100, Metabolic Activation: NONE, Method: STANDARD PLATE.

Take `Nc1nc(NO)c2[nH]cnc2n1`: the mutagenic call (Test System: AMES SALMONELLA TYPHIMURIUM, Strain/Indicator: HISG46, Metabolic Activation: NONE, Method: STANDARD PLATE) is “active; positive”; the mutagenic call under setting [1] was “inactive; negative”; the mutagenic call (Test System: AMES SALMONELLA TYPHIMURIUM, Strain/Indicator: TA100(1,8-DNP6), Metabolic Activation: NONE, Method: PREINCUBATION) was “active; positive”; the mutagenic call (Test System: AMES SALMONELLA TYPHIMURIUM, Strain/Indicator: TA100(NR), Metabolic Activation: NONE, Method: PREINCUBATION) is “active; positive”; the mutagenic call (Test System: AMES SALMONELLA TYPHIMURIUM, Strain/Indicator: TA100, Metabolic Activation: NONE, Method: PREINCUBATION) is “active; positive”; the mutagenic call under setting [2] is “active; positive”. Also, the mutagenic call is “active; positive” (Test System: AMES SALMONELLA TYPHIMURIUM, Strain/Indicator: TA100, Metabolic Activation: RAT, LIVER, S-9, KANECHLOR 500, Method: PREINCUBATION); “active; positive” (Test System: AMES SALMONELLA TYPHIMURIUM, Strain/Indicator: TA1950, Metabolic Activation: NONE, Method: STANDARD PLATE); “active; positive” (Test System: CHINESE HAMSTER OVARY, Strain/Indicator: CHO-K1-BH4 (HGPRT), Metabolic Activation: NONE, Method: SUSPENSION); “active; positive” (Test System: E. COLI, Strain/Indicator: CM871, Metabolic Activation: NONE, Method: STANDARD PLATE); “active; positive” (Test System: E. COLI, Strain/Indicator: WP2, Metabolic Activation: NONE, Method: STANDARD PLATE); “active; positive” (Test System: E. COLI, Strain/Indicator: WP2S, Metabolic Activation: NONE, Method: STANDARD PLATE). The mutagenic call is, setting by setting: (Test System: E. COLI, Strain/Indicator: WP2 UVRA, Metabolic Activation: NONE, Method: STANDARD PLATE) “active; positive”; (Test System: MOUSE LYMPHOMA, Strain/Indicator: L5178Y (TK+/TK-)/6-THIOGUANINE, Metabolic Activation: NONE, Method: SUSPENSION) “active; positive”; (Test System: MOUSE LYMPHOMA, Strain/Indicator: L5178Y (TK+/TK-)/6-THIOGUANINE, Metabolic Activation: NONE, Method: SUSPENSION IN TRAYS) “active; positive”; (Test System: MOUSE LYMPHOMA, Strain/Indicator: L5178Y (TK+/TK-)/OUABAIN, Metabolic Activation: NONE, Method: SUSPENSION) “active; positive”; (Test System: MOUSE LYMPHOMA, Strain/Indicator: L5178Y (TK+/TK-)/OUABAIN, Metabolic Activation: NONE, Method: SUSPENSION IN TRAYS) “active; positive”; (Test System: MOUSE LYMPHOMA, Strain/Indicator: L5178Y (TK+/TK-)/TRIFLUOROTHYMIDINE, Metabolic Activation: NONE, Method: SUSPENSION) “active; positive”. The mutagenic call is “active; positive” (Test System: MOUSE LYMPHOMA, Strain/Indicator: L5178Y (TK+/TK-)/TRIFLUOROTHYMIDINE, Metabolic Activation: NONE, Method: SUSPENSION IN TRAYS) and “active; positive” (Test System: MOUSE LYMPHOMA, Strain/Indicator: L5178Y (TK+/TK-), Metabolic Activation: NONE, Method: SUSPENSION/PLATE).
Take `CC(F)(Cl)Cl`: the mutagenic call (End Point: IN VIVO MICRONUCLEUS, Test System: BONE MARROW, Species: RAT, Strain/Sex: SPRAGUE-DAWLEY/FEMALE, Route: INHALATION) was “inactive; negative” and the mutagenic call (End Point: IN VIVO MICRONUCLEUS, Test System: BONE MARROW, Species: RAT, Strain/Sex: SPRAGUE-DAWLEY/MALE, Route: INHALATION) was “active; positive”.
Regarding `O=[N+]([O-])c1ccc2ccc3c4ccccc4c([N+](=O)[O-])c4ccc1c2c43`, the mutagenic call runs as follows: (Test System: AMES SALMONELLA TYPHIMURIUM, Strain/Indicator: TA98(1,8-DNP6), Metabolic Activation: NONE) “active; positive”; (Test System: AMES SALMONELLA TYPHIMURIUM, Strain/Indicator: TA98(NR), Metabolic Activation: NONE) “active; positive”; (Test System: AMES SALMONELLA TYPHIMURIUM, Strain/Indicator: TA98(NR), Metabolic Activation: NONE, Method: PREINCUBATION) “active; positive”; (Test System: AMES SALMONELLA TYPHIMURIUM, Strain/Indicator: TA98, Metabolic Activation: NONE) “active; positive”; (Test System: AMES SALMONELLA TYPHIMURIUM, Strain/Indicator: TA98, Metabolic Activation: NONE, Method: PREINCUBATION) “active; positive”; under setting [1], “active; positive”. Besides, the mutagenic call under setting [2] was “active; positive”.
For `O[C@@H]1C=Cc2c(ccc3cc4c(ccc5ccccc54)cc23)[C@H]1O`, where the note is “Test System: AMES SALMONELLA TYPHIMURIUM, Strain/Indicator: TA100, Metabolic Activation: RAT, LIVER, S-9, AROCLOR 1254, Method: STANDARD PLATE”, the mutagenic call is “active; positive”.
For `C=C(C)C(=O)OCC(O)COc1ccc(C(C)(C)c2ccc(OCC(O)COC(=O)C(=C)C)cc2)cc1` (centres undefined), the mutagenic call is “inactive; negative” (Test System: AMES SALMONELLA TYPHIMURIUM, Strain/Indicator: TA97A, Metabolic Activation: NONE, Method: STANDARD PLATE); “inactive; negative” (Test System: AMES SALMONELLA TYPHIMURIUM, Strain/Indicator: TA97A, Metabolic Activation: RAT LIVER S-9, PHENOBARBITAL AND BETA-NAPHTHAFLAVONE, Method: STANDARD PLATE); “inactive; negative” under setting [1]; “inactive; negative” (Test System: AMES SALMONELLA TYPHIMURIUM, Strain/Indicator: TA98, Metabolic Activation: RAT LIVER S-9, PHENOBARBITAL AND BETA-NAPHTHAFLAVONE, Method: STANDARD PLATE); “inactive; negative” under setting [2]; “inactive; negative” (Test System: AMES SALMONELLA TYPHIMURIUM, Strain/Indicator: TA100, Metabolic Activation: RAT LIVER S-9, PHENOBARBITAL AND BETA-NAPHTHAFLAVONE, Method: STANDARD PLATE). In addition, the mutagenic call (Test System: AMES SALMONELLA TYPHIMURIUM, Strain/Indicator: TA102, Metabolic Activation: NONE, Method: STANDARD PLATE) is “inactive; negative”; the mutagenic call (Test System: AMES SALMONELLA TYPHIMURIUM, Strain/Indicator: TA102, Metabolic Activation: RAT LIVER S-9, PHENOBARBITAL AND BETA-NAPHTHAFLAVONE, Method: STANDARD PLATE) is “inactive; negative”; the mutagenic call (Test System: CHINESE HAMSTER OVARY V-79, Strain/Indicator: V79 (HPRT)/6-THIOGUANINE, Metabolic Activation: NONE) was “inactive; negative”.
